According to patent US12209096B2, “Compounds and compositions for inducing chondrogenesis” (NOVARTIS AG, priority 2017, dated 2025):
pEC50: −log10 of the molar value. Where two headings read alike, the source gives them in different places.

Tested on: NHACs
Assay: calcium flux assay
Type: cell-based, human
Settings: for Emax: read-out: (A) % Efficacy
Experimental: NHACs were plated in 1536 Greiner plate at 2000 cells/well in 4 ul volume. 24 hours later, 4 ul of Calcium 5 dye solution (Hank's Balanced Salt/HEPES buffer containing 5 mM of Probenecid) was then added and incubated for 1 hour at room temperature. Fluorescence readings at excitation wavelength of 470-495 nm and emission wavelength of 515-575 nm were done using FLIPR high-throughput screening system (Molecular Devices, Sunnyvale, CA). The test compound was then added to each well at the indicated dose. Signal was measured prior compound dispense and after using a first interval of 1 second for 60 reads and second interval of 3 second for 20 reads. Data was analyzed using Molecular Devices ScreenWorks® Software.

Compound: O=C(Nc1ccc(Cl)c(Cl)c1)[C@@H]1[C@@H]2O[C@@H]([C@H]3C[C@H]32)[C@@H]1c1cnc(N2CCOCC2)nc1 [Example 40, (1S,2S,4R,5R,6S,7S)—N-(3,4-dichlorophenyl)-7-(2-morpholinopyrimidin-5-yl)-8-oxatricyclo[3.2.1.0^2,4]octane-6-carboxamide]
- pEC50 (Homo sapiens): < 4.30
- Emax (Homo sapiens): 37%

Compound: Cc1cc([C@H]2[C@H]3O[C@H]([C@@H]4C[C@@H]43)[C@@H]2C(=O)Nc2ccc(Cl)c(F)c2)ccn1 [Example 68, (1S,2S,4R,5R,6R,7S)—N-(4-chloro-3-fluorophenyl)-7-(2-methylpyridin-4-yl)-8-oxatricyclo[3.2.1.0^2,4]octane-6-carboxamide]
- pEC50 (Homo sapiens): 4.82
- Emax (Homo sapiens): 306%

Compound: O=C(Nc1ccc(Cl)c(Cl)c1)[C@@H]1[C@@H](c2ccnc(F)c2)[C@H]2O[C@@H]1C[C@@H]2F [Example 111, (1R,2R,3S,4R,5S)—N-(3,4-dichlorophenyl)-5-fluoro-3-(2-fluoropyridin-4-yl)-7-oxabicyclo[2.2.1]heptane-2-carboxamide]
- pEC50 (Homo sapiens): 4.55
- Emax (Homo sapiens): 87%

Compound: O=C(Nc1cnc(Cl)c(Cl)c1)[C@@H]1[C@@H](c2ccncc2)[C@H]2O[C@@H]1C[C@@H]2O [Example 87, (1R,2R,3S,4R,5S)—N-(5,6-dichloropyridin-3-yl)-5-hydroxy-3-(pyridin-4-yl)-7-oxabicyclo[2.2.1]heptane-2-carboxamide]
- pEC50 (Homo sapiens): < 4.30
- Emax (Homo sapiens): 14%

Compound: (1R,2S,3S,4R,5S)-5-hydroxy-3-(pyridin-4-yl)-N-[3-(trifluoromethyl)phenyl]-7-oxabicyclo[2.2.1]heptane-2-carboxamide [Example 11]
- (A) % Efficacy: 27%
- pEC50: < 4.30

Compound: Nc1ncc([C@H]2[C@H]3O[C@H]([C@@H]4C[C@@H]43)[C@H]2C(=O)Nc2ccc(Cl)c(Cl)c2)cn1 [Example 39, (1S,2S,4R,5R,6S,7S)-7-(2-aminopyrimidin-5-yl)-N-(3,4-dichlorophenyl)-8-oxatricyclo[3.2.1.0^2,4]octane-6-carboxamide]
- pEC50 (Homo sapiens): 6.28
- Emax (Homo sapiens): 40%

Compound: O=C(Nc1cccc(C(F)(F)F)c1)[C@@H]1[C@@H]2O[C@@H]([C@H]3C[C@H]32)[C@@H]1c1ccnc(F)c1 [Example 41, (1S,2S,4R,5R,6S,7S)-7-(2-fluoropyridin-4-yl)-N-(3-(trifluoromethyl)phenyl)-8-oxatricyclo[3.2.1.0^2,4]octane-6-carboxamide]
- pEC50 (Homo sapiens): 4.62
- Emax (Homo sapiens): 121%

Compound: O=C(Nc1ccc(Cl)c(Cl)c1)[C@H]1[C@@H]2O[C@@H]([C@H]3C[C@H]32)[C@@H]1c1cncnc1 (single isomer, unassigned) [Example 126a]
- pEC50 (Homo sapiens): 5.27
- Emax (Homo sapiens): 233%

Compound: COc1ccc(NC(=O)[C@@H]2[C@@H]3O[C@@H]([C@H]4C[C@H]43)[C@@H]2c2ccc(C)nc2)cn1 [Example 31, (1S,2S,4R,5R,6S,7S)-N-(6-methoxypyridin-3-yl)-7-(6-methylpyridin-3-yl)-8-oxatricyclo[3.2.1.0^2,4]octane-6-carboxamide]
- pEC50 (Homo sapiens): < 4.30
- Emax (Homo sapiens): 0%

Compound: O=C(Nc1ccc(Cl)c(Cl)c1)[C@H]1[C@H]2O[C@H]([C@@H]3C[C@@H]32)[C@H]1c1cncnc1 (single isomer, unassigned) [Example 28]
- pEC50 (Homo sapiens): 4.64
- Emax (Homo sapiens): 167%

Compound: CN[C@@H]1C[C@H]2O[C@@H]1[C@H](c1ccnc(F)c1)[C@H]2C(=O)Nc1cnc(Cl)c(Cl)c1 [Example 174, (1R,2R,3S,4R,5R)—N-(5,6-dichloropyridin-3-yl)-3-(2-fluoropyridin-4-yl)-5-(methylamino)-7-oxabicyclo[2.2.1]heptane-2-carboxamide]
- pEC50 (Homo sapiens): < 4.30
- Emax (Homo sapiens): 37%

Compound: O=C(Nc1ccc(Cl)c(Cl)c1)[C@@H]1[C@@H](c2cnc(F)nc2)[C@H]2O[C@@H]1C[C@@H]2O [Example 151, (1R,2R,3S,4R,5S)—N-(3,4-dichlorophenyl)-3-(2-fluoropyrimidin-5-yl)-5-hydroxy-7-oxabicyclo[2.2.1]heptane-2-carboxamide]
- pEC50 (Homo sapiens): < 4.30
- Emax (Homo sapiens): 0%
